Where two headings read alike, the source gives them in different places.
How the values were obtained:
[1] = 14-membered ring
human IRAK-4 = human IRAK-4 (Homo sapiens (Human), UniProt Q9NWZ3); assay: Measurement of human IRAK-4 inhibitory activity (TR-FRET); assay type: biochemical; conditions: 1 nM IRAK-4, 0.5 µM peptide substrate, 10 µM ATP, 23° C., 30 minutes
Method: For the measurement of the activity of the human IRAK-4 (Invitrogen, Cat. PV3362), phosphorylation of the IRAK-4 peptide substrate (biotin-KKKKRFSFKKSFKC) by the enzyme in the presence of 10 µM ATP (Sigma-Aldrich, Cat. A7699) was measured by the TR-FRET method. The enzymatic reaction was performed in a reaction buffer containing 50 mM HEPES (pH 7.2), 1 mM DTT, 0.1 mM Na3VO4, 5 mM MgCl2, 1 mM MnCl2, and 0.1% bovine serum albumin. For the measurement of the IRAK-4 inhibitory activity, a test compound was added to the reaction buffer containing 1 nM IRAK-4, 0.5 µM peptide substrate, and 10 µM ATP, and the mixture was incubated at 23° C. for 30 minutes. Then, a detection solution containing an antibody labeled with europium cryptate (0.3 µg/mL, the antibody was prepared by using the IRAK-4 peptide substrate as the antigen), streptavidin-XL665 (2 µg/mL, CisBio, Cat. 610SAXLB), 50 mM HEPES (pH 7.2), 0.1% BSA, 120 mM KF, and 66.7 mM EDTA (all the concentrations of the reagents are final concentrations) was added to terminate the reaction, and then the mixture was further incubated at 23° C. for 60 minutes. Fluorescence intensity was measured at wavelengths of 665 nm and 620 nm with a microplate reader, and the enzymatic activity was calculated as the ratio of fluorescence intensities at 665 nm and 620 nm (665 nm/620 nm).
When the measurement was performed in multiplicate, the results are represented with average values.

[2] = test system: human acute monocytic leukemia cell strain THP-1; assay: LPS-stimulated TNFα production inhibition test using THP-1 cells; assay type: cell-based; conditions: LPS 2.5 ng/mL, TNFα by HTRF
Method: By the THP-1 assay, influence of a test compound on the TNFα production induced by LPS stimulation can be evaluated. The THP-1 cells (ATCC, Cat. TIB-202) were inoculated on a 96-well plate at a density of 1 × 10^5 cells/160 µL/well, a test compound was added in a volume of 20 µL, and the plate was incubated at 37° C. for 1 hour in a 5% CO2 incubator. Then, LPS in a volume of 20 µL (final concentration 2.5 ng/mL, Sigma, Cat. L2630) was added, and the plate was further incubated for 4 hours. After the incubation, the plate was centrifuged, and 100 µL of the supernatant was taken from each well, and used for evaluation of the amount of TNFα using HTRF (Cisbio, Cat. 62TNFPEB). In the measurement of the amount of TNFα, the supernatant was diluted twice with the medium, and then added to wells of a 384-well plate in a volume of 10 µL, then anti-TNFα-cryptate (5 µL), and anti-TNFα-XL665 (5 µL) were added, and the plate was left standing overnight. The fluorescence intensity ratio for the wavelengths of 620 and 665 nm (620 nm/665 nm) was measured with a microplate reader, and the amount of TNFα in the supernatant was calculated by using a calibration curve. The TNFα production suppression ratio observed with no addition of LPS was defined to be 100%, the TNFα production suppression ratio observed with no addition of the test compound was defined to be 0%, and IC50 of the test compound was calculated by using the 4-parameter logistic model of the data analysis software XLfit (ID Business Solutions Ltd.).
When the measurement was performed in multiplicate, the results are represented with average values. The values were rounded to the fourth decimal place.

human IRAK-4, sequence (Q9NWZ3 whole entry): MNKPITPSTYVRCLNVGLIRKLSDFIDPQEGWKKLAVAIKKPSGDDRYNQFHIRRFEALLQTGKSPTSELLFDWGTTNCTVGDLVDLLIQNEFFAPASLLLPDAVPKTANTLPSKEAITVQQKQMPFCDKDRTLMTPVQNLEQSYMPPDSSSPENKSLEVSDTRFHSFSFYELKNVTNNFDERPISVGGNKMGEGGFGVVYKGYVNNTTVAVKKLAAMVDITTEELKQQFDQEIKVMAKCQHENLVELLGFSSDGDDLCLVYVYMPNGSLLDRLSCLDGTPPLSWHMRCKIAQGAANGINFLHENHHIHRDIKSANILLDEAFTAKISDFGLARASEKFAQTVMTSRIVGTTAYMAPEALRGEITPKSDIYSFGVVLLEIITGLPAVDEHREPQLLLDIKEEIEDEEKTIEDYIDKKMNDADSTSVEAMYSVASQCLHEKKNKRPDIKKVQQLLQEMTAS

SMILES	IC50 (human IRAK-4) [nM]	IC50 ([2]; Homo sapiens, THP-1, 4 h) [µM]	further results
CC(C)(C)OC(=O)N1CC[C@H]2C[C@H]1C(=O)NCCCCc1c(OCc3ccccc3)ccc3ncc(cc13)N2	–	–	ring closure, yield of all isomers (from CC(C)(C)OC(=O)N1CC[C@H](N)C[C@H]1C(=O)NCCCCc1c(OCc2ccccc2)ccc2ncc(Br)cc12, cn_pd bond, tBuBrettPhos Pd G3 / phosphazene base P2-Et, toluene, 29.3 mM, 25.0 °C): 39%
CC(C)(C)OC(=O)N1CC[C@H]2C[C@H]1C(=O)NCC(F)COc1c(OCc3ccccc3)ccc3ncc(cc13)N2 (some centres unmarked)	–	–	ring closure, isolated yield ([1]; from CC(C)(C)OC(=O)N1CC[C@H](Nc2cnc3ccc(OCc4ccccc4)c(O)c3c2)C[C@H]1C(=O)NCC(F)CO, ether bond, PPh3/DTBAD, toluene, 4.84 mM, 25.0 °C, 1.0 h): 67%; ring closure, yield of all isomers (from CC(C)(C)OC(=O)N1CC[C@H](Nc2cnc3ccc(OCc4ccccc4)c(O)c3c2)C[C@H]1C(=O)NCC(F)CO, ether bond, PPh3 / di-tert-butyl azodicarboxylate, toluene, 4.76 mM, 25.0 °C, 1.0 h): 67%
CC(C)(C)OC(=O)N1CC[C@H]2C[C@H]1C(=O)OCCCOc1c(OCc3ccccc3)ccc3ncc(cc13)N2	–	–	ring closure, isolated yield ([1]; from CC(C)(C)OC(=O)N1CC[C@H](N)C[C@H]1C(=O)OCCCOc1c(OCc2ccccc2)ccc2ncc(Br)cc12, cn_pd bond, tBuXPhos Pd G3/Cs2CO3, 1,4-dioxane, 98.8 mM, 120.0 °C, 72.0 h): 7%; ring closure, yield of all isomers (from CC(C)(C)OC(=O)N1CC[C@H](N)C[C@H]1C(=O)OCCCOc1c(OCc2ccccc2)ccc2ncc(Br)cc12, cn_pd bond, tBuXPhos Pd G3 / Cs2CO3, 1,4-dioxane, 98.8 mM, 120.0 °C, 72.0 h): 7%
CC1CC2C[C@@H](C(=O)NCC/C=C/c3c(OCc4ccccc4)ccc4ncc(cc34)N2)N1C (some centres unmarked)	–	–	ring closure, yield of all isomers (from CC1CC(N)C[C@@H](C(=O)NCC/C=C/c2c(OCc3ccccc3)ccc3ncc(Br)cc23)N1C, cn_pd bond, Pd2(dba)3 / XPhos / sodium phenoxide, 1,4-dioxane, 97.4 mM, 101.0 °C, 14.0 h): 75%
CC1CC2C[C@@H](C(=O)NCCC=Cc3c(OCc4ccccc4)ccc4ncc(cc34)N2)N1C (some centres unmarked)	–	–	ring closure, isolated yield ([1]; from CC1CC(N)C[C@@H](C(=O)NCC/C=C/c2c(OCc3ccccc3)ccc3ncc(Br)cc23)N1C, cn_pd bond, Pd2(dba)3/XPhos/NaOPh, 1,4-dioxane, 97.4 mM, 14.0 h): 75%
CN1CC[C@H]2C[C@H]1C(=O)NCCCOc1c(-c3cnc(COCC4CC4)nc3)ccc3ncc(nc13)N2 [a-01-21]	2.29	0.117	–
Cc1ncc(-c2ccc3ncc4cc3c2OCC(F)CNC(=O)[C@@H]2C[C@H](CCN2C)N4)cn1 (some centres unmarked) [a-02-16]	0.81	0.065	–
CCN1CC[C@H]2C[C@H]1C(=O)NCCCOc1c(-c3cnc(CO)s3)ccc3ncc(nc13)N2 [a-01-16]	1.25	0.092	–
CCCOCc1ncc(-c2ccc3ncc4cc3c2OCC(F)CNC(=O)[C@@H]2C[C@H](CCN2C)N4)cn1 (some centres unmarked) [a-02-02, (3^2S,3^4S)-7-Fluoro-3^1-methyl-1^6-(2-(propoxymethyl)pyrimidin-5-yl)-9-oxa-2,5-diaza-1(3,5)-qunolina-3(4,2)-piperidinacyclononaphan-4-one]	1.09	0.013	–
CN1CC[C@H]2C[C@H]1C(=O)NCCCOc1c(-c3ccns3)ccc3ncc(nc13)N2 [a-01-01]	1.63	0.028	–
CN1CC[C@H]2C[C@H]1C(=O)NCC1(CCC1)COc1c(-c3cnc(CO)s3)ccc3ncc(nc13)N2 [a-01-44]	2.36	0.21	–
CCCOCc1ncc(-c2ccc3ncc4nc3c2OCCC(CC)CNC(=O)[C@@H]2C[C@H](CCN2C)N4)cn1 (some centres unmarked) [a-01-37]	4.52	0.189	–
Cc1ncc(-c2ccc3ncc4nc3c2OCCCNC(=O)[C@@H]2C[C@H](CCN2C)N4)cn1 [a-01-24]	2.48	0.14	–
CN1CCCOc2c(-c3cnc(CO)s3)ccc3ncc(nc23)N[C@H]2CCN(C)[C@@H](C2)C1=O [a-01-18]	1.84	0.104	–
Cc1ncc(-c2ccc3ncc4cc3c2OCCCNC(=O)[C@@H]2C[C@H](CCN2C)N4)cn1 [a-02-21]	2.2	0.135	–
Cc1ncc(-c2ccc3ncc4cc3c2OCC(F)CNC(=O)[C@@H]2C[C@H](CCN2C(C)C)N4)cn1 (some centres unmarked) [a-02-13]	1.12	0.048	–

SMILES	IC50 (human IRAK-4) [nM]	IC50 ([2]; Homo sapiens, THP-1, 4 h) [µM]	further results
O=C1OCCCOc2c(-c3cnc(CO)nc3)ccc3ncc(cc23)N[C@H]2CCN[C@H]1C2 [a-02-12]	0.93	0.047	–
CCCOCc1ncc(-c2ccc3ncc4nc3c2OCCCN(C)C(=O)[C@@H]2C[C@H](CCN2C)N4)cn1 [a-01-38]	6.73	0.199	–
CN1CC[C@H]2C[C@H]1C(=O)NCCCCCOc1c(-c3cncnc3)ccc3ncc(nc13)N2 [a-01-39]	5.12	0.204	–
CN1CC[C@H]2C[C@H]1C(=O)NCC1(CC1)COc1c(-c3cnc(CO)s3)ccc3ncc(nc13)N2 [a-01-02]	0.89	0.044	–
Cc1ncc(-c2ccc3ncc4nc3c2OCC2(CC2)COC(=O)[C@@H]2C[C@H](CCN2C)N4)cn1 [a-01-33]	4.79	0.17	–
CCCOCc1ncc(-c2ccc3ncc4nc3c2OCCC(C)CNC(=O)[C@@H]2C[C@H](CCN2C)N4)cn1 (some centres unmarked) [a-01-12]	1.75	0.075	–
CCCOCc1ncc(-c2ccc3ncc4nc3c2OCC(F)CNC(=O)[C@@H]2C[C@H](CCN2C)N4)cn1 (some centres unmarked) [a-01-26]	1.41	–	IC50 ([2]; 4 hours): 0.142 µM
CCCOCc1ncc(-c2ccc3ncc4nc3c2OCCCC2CCCN2C(=O)[C@@H]2C[C@H](CCN2C)N4)cn1 (some centres unmarked) [a-01-10]	43.4	0.068	–
Cc1ncc(-c2ccc3ncc4nc3c2OCC(F)(F)CNC(=O)[C@@H]2C[C@H](CCN2C)N4)cn1 [a-01-28]	4.04	0.149	–
CN1CC[C@H]2C[C@H]1C(=O)NCC(F)(F)COc1c(-c3cncnc3)ccc3ncc(nc13)N2 [a-01-08]	1.47	0.063	–
CCCOCc1ncc(-c2ccc3ncc4cc3c2CCCCNC(=O)[C@@H]2C[C@H](CCN2C)N4)cn1 [a-02-24, (3^2S,3^4S)-3^1-Methyl-1^6-(2-(propoxymethyl)pyrimidin-5-yl)-2,5-diaza-1(3,5)-qunolina-3(4,2)-piperidinacyclononaphan-4-one]	13.2	0.378	–
CCCOCc1ncc(-c2ccc3ncc4nc3c2OCC(F)CNC(=O)[C@@H]2C[C@H](CCN2C)N4)cn1 (some centres unmarked) [a-01-05]	1.37	–	IC50 ([2]; 4 hours): 0.048 µM
CN1CCC2CC1(C)C(=O)NCC(F)COc1c(OCc3ccccc3)ccc3ncc(cc13)N2 (centres unmarked)	–	–	ring closure, yield of all isomers (from CN1CCC(N)CC1(C)C(=O)NCC(F)COc1c(OCc2ccccc2)ccc2ncc(Br)cc12, cn_pd bond, Pd2(dba)3 / XPhos / sodium phenoxide, 1,4-dioxane, 107.0 mM, 101.0 °C, 14.0 h): 32%
CC(C)(C)OC(=O)N1CC[C@H]2C[C@H]1C(=O)NCCCOc1c(OCc3ccccc3)ccc3ncc(cc13)O2	–	–	ring closure, isolated yield ([1]; from CC(C)(C)OC(=O)N1CC[C@@H](O)C[C@H]1C(=O)NCCCOc1c(OCc2ccccc2)ccc2ncc(O)cc12, ether bond, PPh3/DTBAD, toluene, 11.0 mM, 1.5 h): 72%
CN1CC[C@H]2C[C@H]1C(=O)NCC(F)(F)COc1c(-c3cnc(CO)s3)ccc3ncc(nc13)N2 [a-01-22]	0.89	0.118	–
CCC(O)COCc1ncc(-c2ccc3ncc4nc3c2OCCCNC(=O)[C@@H]2C[C@H](CCN2C)N4)cn1 (some centres unmarked) [a-01-17]	3.04	0.099	–

From US20230357271A1, “MACROCYCLIC COMPOUND” (Asahi Kasei Pharma Corporation, priority 2020, published 2023)
